Measured values: patent US8940915B2, “Solvent for recovery of maleic anhydride from a gas stream” (Huntsman Petrochemical LLC, priority 2011, dated 2015)
In brackets after ≈: the same amount, converted by molar mass.

Columns and labels:
[1] = Solubility of fumaric acid in the solvent; format: physicochemical; conditions: fumaric acid dissolved in dibutyl adipate, at 60° C.
[2] = Solubility of maleic anhydride in the solvent; format: physicochemical; conditions: maleic anhydride dissolved in dibutyl adipate, at 60° C.
Solubility in water = format: physicochemical; conditions: at 25° C.

CCCCOC(=O)CCCCC(=O)OCCCC [dibutyl adipate, Di-n-butyl adipate]
Solubility of Fumaric Acid [1]: about 0.15 wt % at 60 °C
Solubility of Maleic Anhydride [2]: >20 wt % at 60 °C
Toxicity (in words) (Toxicity statement): neither dibutyl adipate nor any of its hydrolysis products is toxic
solubility (Solubility in water): 35 µg/mL (≈ 135 µM)
